Legend:
[1] = tested on: Lassa GP-pseudotyped-virus; experiment: microbe, parasite or virus in culture; format: cell-based, Lassa fever virus; settings: for EC50: Human immunodeficiency virus 1, read-out: Activity (EC50 in μM vs. pseudotyped virus) Lassa
Sabiá pseudotyped virus = experiment: organism not typed; format: cell-based; settings: read-out: Activity (EC50 in μM vs. pseudotyped virus) Sabiá
VSVg pseudotyped virus = experiment: organism not typed; format: cell-based; settings: read-out: Activity (EC50 in μM vs. pseudotyped virus) VSVg
Junín pseudotyped virus = experiment: organism not typed; format: cell-based; settings: read-out: Activity (EC50 in μM vs. pseudotyped virus) Junín
[2] = tested on: Guanarito pseudotyped virus; experiment: organism not typed; format: cell-based; settings: read-out: Activity (EC50 in μM vs. pseudotyped virus) Guanarito
[3] = tested on: Machupo pseudotyped virus; experiment: organism not typed; format: cell-based; settings: read-out: Activity (EC50 in μM vs. pseudotyped virus) Machupo

Which results are given for `CCOc1ccc(-n2cnc3cc(OCc4ccc(CC)cc4)cnc32)cc1` [Compound 31, 3-(4-ethoxyphenyl)-6-[(4-ethylphenyl)-methoxy]imidazo[4,5-b]pyridine]?
EC50 [1]: < 1 µM; EC50 (Sabiá pseudotyped virus): < 1 µM; EC50 (VSVg pseudotyped virus): 10 to 50 µM; EC50 (Junín pseudotyped virus): < 1 µM; EC50 [2]: < 1 µM; EC50 [3]: < 1 µM

`CCOc1ccc(-n2cnc3cc(/C=C\c4ccc(CC)cc4)ccc32)cc1` [Compound 2, 1-(4-ethoxyphenyl)-5-[(Z)-2-(4-ethylphenyl)vinyl]benzimidazole] was tested. Which “EC50 value against Lassa GP-pseudotyped-virus” value [1] did it give?
Its value is “submicromolar”.

What about the EC50 [1] of the same compound?
The EC50 was less than 1 µM.

What about the EC50 (Sabiá pseudotyped virus) of the same compound?
The EC50 was less than 1 µM.

And the EC50 (VSVg pseudotyped virus)?
Its EC50 is 10 to 50 µM.

What about the EC50 (Junín pseudotyped virus) of the same compound?
The EC50 was less than 1 µM.

And the EC50 [2]?
The EC50 was less than 1 µM.

And the EC50 [3]?
The EC50 was less than 1 µM.

What does the source list for `CC(C)Oc1ccc(-n2cnc3cc(/C=C\c4ccc(C(=O)O)cc4)ccc32)cc1` [Compound 45, 4-[(Z)-2-[1-(4-isopropoxyphenyl)benzimidazol-5-yl]vinyl]benzoic acid]?
EC50 [1]: 10 to 50 µM; EC50 (Sabiá pseudotyped virus): 1 to 10 µM; EC50 (VSVg pseudotyped virus): > 50 µM; EC50 (Junín pseudotyped virus): < 1 µM; EC50 [3]: < 1 µM

Which results are given for `COc1ccc(-n2cnc3cc(/C=C\c4ccc(C(C)C)cc4)cnc32)cc1` [Compound 24, 6-[(Z)-2-(4-isopropylphenyl)vinyl]-3-(4-methoxyphenyl)imidazo[4,5-b]pyridine]?
EC50 [1]: < 1 µM; EC50 (Sabiá pseudotyped virus): < 1 µM; EC50 (VSVg pseudotyped virus): 10 to 50 µM; EC50 (Junín pseudotyped virus): < 1 µM; EC50 [3]: < 1 µM

Which results are given for `COc1ccc(-n2cnc3cc(OCc4ccc(C(C)C)cc4)cnc32)cc1` [Compound 32, 6-[(4-isopropyl-phenyl)methoxy]-3-(4-methoxyphenyl)imidazo[4,5-b]pyridine]?
EC50 [1]: < 1 µM; EC50 (Sabiá pseudotyped virus): < 1 µM; EC50 (VSVg pseudotyped virus): 10 to 50 µM; EC50 (Junín pseudotyped virus): < 1 µM; EC50 [3]: < 1 µM

Which results are given for `CCOc1ccc(-n2cnc3cc(CCc4ccc(CC)cc4)ccc32)cc1` [Compound 27, 1-(4-ethoxyphenyl)-5-[2-(4-ethylphenyl)-ethyl]benzimidazole]?
EC50 [1]: < 1 µM; EC50 (Sabiá pseudotyped virus): < 1 µM; EC50 (VSVg pseudotyped virus): > 50 µM; EC50 (Junín pseudotyped virus): < 1 µM; EC50 [2]: < 1 µM; EC50 [3]: < 1 µM

Which results are given for `CCOc1ccc(-n2cnc3cc(/C=C\c4ccc(C(C)(C)O)cc4)ccc32)cc1` [Compound 61, 2-[4-[(Z)-2-[1-(4-ethoxyphenyl)benzimidazol-5-yl]vinyl]phenyl]propan-2-ol]?
EC50 [1]: < 1 µM; EC50 (Sabiá pseudotyped virus): < 1 µM; EC50 (VSVg pseudotyped virus): 10 to 50 µM; EC50 (Junín pseudotyped virus): < 1 µM; EC50 [3]: < 1 µM

`CCOc1ccc(-n2cnc3cc(/C=C\c4ccc(C(C)(C)C)cc4)ccc32)cc1` [Compound 5, 5-[(Z)-2-(4-tert-butylphenyl)vinyl]-1-(4-ethoxyphenyl)benzimidazole] was tested. Which EC50 [1] did it give?
Its EC50 is less than 1 µM.

What about the EC50 (Sabiá pseudotyped virus) of the same compound?
The EC50 was less than 1 µM.

What about the EC50 (VSVg pseudotyped virus) of the same compound?
The EC50 was 10 to 50 µM.

And the EC50 (Junín pseudotyped virus)?
Its EC50 is less than 1 µM.

And the EC50 [3]?
The EC50 was less than 1 µM.

What does the source list for `CCOc1ccc(-n2cnc3cc(SCc4ccc(CC)cc4)ccc32)cc1` [Compound 33, 1-(4-ethoxyphenyl)-5-[(4-ethylphenyl)-methylsulfanyl]benzimidazole]?
EC50 [1]: < 1 µM; EC50 (Sabiá pseudotyped virus): < 1 µM; EC50 (VSVg pseudotyped virus): 10 to 50 µM; EC50 (Junín pseudotyped virus): < 1 µM; EC50 [2]: < 1 µM; EC50 [3]: < 1 µM
